“Also recorded” adds a separate entry of the source.
Columns and labels:
SUM159 PACR cells [1] = assay: Mammosphere assay, SUM159 PACR cells; type: cell-based, human
SUM159 = assay: Expression of EMT and lineage markers in SUM159; type: cell-based, human
Experimental: (§1) Cells were rinsed twice in ice-cold PBS. Total RNA was extracted using Trizol (Invitrogen) and column-purified with RNeasy kits (Qiagen). cDNA synthesis was performed with 500 ng of total RNA at 37° C. for 2 h using the SuperScript III First-Strand Synthesis System (Thermo Fisher Scientific), and subsequently diluted 5-fold. mRNA levels were measured with gene-specific primers listed below using the ABI Prism 7900HT Sequence Detection System 2.2 (Applied Biosystems). Results were normalized to GAPDH and analyzed using SDS 2.2 software.
Cells were harvested and scraped from culture dishes in ice-cold PBS. They were then centrifuged at 12000 rpm for 5 min at 4° C. The pellets were then snap frozen in liquid nitrogen or lysed in ice-cold RIPA lysis buffer (Thermo Scientific) and left on ice for 30 min. Subsequently, the lysates were centrifuged at 12000 rpm for 10 min at 4° C. The supernatants were then aspirated and placed in fresh tubes. Protein concentrations were determined using Coomaisse Blue. 50-80 μg total protein was mixed with NuPAGE™ LDS sample buffer and heated at 70° C. for 10 min. Samples were loaded into NuPAGE™ 4-12% Bis-Tris gels (precast polyacrylamide gel; Invitrogen™). Gel electrophoresis was done at 200V for 1.5 h and then blotted onto nitrocellulose membranes (Trans-Blot Turbo™ transfer pack; Bio-Rad). […]

NAMEC8 [2] = assay: Dose response to Raloxifene HCl of bexarotene-treated cells; type: cell-based, human; settings: bexarotene-treated vs DMSO cells
From the text: Data were normalized to vehicle controls.

NAMEC8 [3] = assay: Lipidomic analysis (LC-MS/MS); type: cell-based, human; settings: NAMEC8 bexarotene vs DMSO
From the text: Lipids from cell pellets were extracted using butanol:methanol (1:1) as extraction solvent. The extraction solvent included an internal standard mixture consisting of 17:0 LPC (Lysophosphocholine), C14 LPE (Lysophosphoethanolamine), C17 Ceramide, C17 phosphocholine, C17 phosphoserine, C17:0 PG, C8-Ceramide, DMPE (1,2-dimyristoyl-glycero-3-phosphoethanolamine), DMPG (1,2-dimyristoyl-glycero-3-phospho-(1′rac-glycerol), DMPS (dimyristoyl-glycero-phosphoserine), 12:0 DG (1,2-dilauroyl-sn-glycerol), C8 GluCer (D-glucosyl-β1-1′-N-octanoyl-D-erythro-sphingosine), 24:0 SM (N-lignoceroyl-D-erythro-sphingosylphosphorylcholine), 24:1 SM (N-nervonoyl-D-erythro-sphingosylphosphorylcholine), d5-TAG 48:0. All the standards were obtained from Avanti Polar Lipids (Alabaster, AL, USA) except for d5-TAG 48:0 that was obtained from CDN isotopes. All standards were added to a final concentration of 100 ng/ml. 100 μl of the extraction solvent including the standards were added to 1×10^7 cells in a vial containing the cell pellet. The mixture was vortexed for 15 s. […]
Samples were analysed with a liquid chromatography-tandem mass spectrometry (LC-MS/MS) system (Agilent 1290 UHPLC connected to Agilent 6490 QQQ). […] Lipids were quantified in positive multiple reaction monitoring (MRM) mode. […] Data were extracted using MassHunter Quantitative Analysis software (Agilent). […]

SUM159 PACR cells [4] = assay: Cell viability IC50 in SUM159 PACR cells; settings: SUM159 PACR
NAMEC8 [5] = assay: Expression of EMT and lineage markers (qRT-PCR, immunoblot, immunofluorescence) in NAMEC8; type: cell-based, human
Experimental: as §1
Cells were harvested and scraped from culture dishes in ice-cold PBS. They were then centrifuged at 12000 rpm for 5 min at 4° C. The pellets were then snap frozen in liquid nitrogen or lysed in ice-cold RIPA lysis buffer (Thermo Scientific) and left on ice for 30 min. Subsequently, the lysates were centrifuged at 12000 rpm for 10 min at 4° C. The supernatants were then aspirated and placed in fresh tubes. Protein concentrations were determined using Coomaisse Blue. 50-80 μg total protein was mixed with NuPAGE™ LDS sample buffer and heated at 70° C. for 10 min. Samples were loaded into NuPAGE™ 4-12% Bis-Tris gels (precast polyacrylamide gel; Invitrogen™). Gel electrophoresis was done at 200V for 1.5 h and then blotted onto nitrocellulose membranes (Trans-Blot Turbo™ transfer pack; Bio-Rad). The membranes were blocked with 5% skimmed milk in Tris-buffered saline (TBS; 1st BASE) with 0.1% Tween-20 (Santa Cruz), and then incubated with primary antibodies overnight at 4° C. Thereafter, the membranes were incubated with a horseradish peroxidase (HRP)-conjugated secondary antibody at room temperature for one hour. Finally, the immunoreactive proteins were visualized by using an enhanced chemiluminescent (ECL) reagent (Thermo Scientific, 34075) with the Chemidoc™ Imager (Bio-Rad, 17001401).
Cell cultures were fixed in 4% paraformaldehyde and permeabilized with 0.25% Triton X-100, followed by blocking with 1% bovine serum albumin in PBST. Cells were incubated in specific primary antibodies, followed by the appropriate secondary antibodies conjugated with Alexa Fluor-488 or -594 (Molecular Probes). Cell nuclei were then stained with DAPI and then viewed and imaged with an Axio Observer D1 epifluorescence microscope with a built-in AxioCamMR3 camera (Zeiss), using the optimal filters and 100-200× magnifications.

NAMEC8 [6] = assay: Cell morphology of treated NAMEC8; type: cell-based, human; settings: bexarotene, TTNPB, SGC-CBP30, UNC0642, A-485 1 μM, LLY-283, GSK591 20 nM, C-IN-1 500 nM
Experimental: Human mammary epithelial cell lines (HMLE) were generated as described and immortalized using retroviral vectors to express the catalytic subunit of the human telomerase enzyme, hTERT and the SV-40 Large T antigen. NAMEC8 was generated as described. Briefly, HMLE cells were grown to 50% confluency, followed by differential trypsinization for 1 minute with 0.05% trypsin. Detached cells were carefully collected and re-plated at approximately 200 cells per well of a 24-well plate. Upon expansion, wells were screened for populations that were morphologically mesenchymal and can be stably propagated. Clonal and non-clonal NAMEC cell lines were generated. NAMEC8 is a non-clonal line derived from at least 200 mesenchymal cells. HMLE cells and NAMECs were maintained in MEGM (Lonza).

NAMEC8 [7] = assay: Mammosphere assay, NAMEC8; type: cell-based, human; settings: NAMEC8
Experimental: For mammosphere culture, cells were seeded onto 96-well ultralow-adherence plates at 700 cells/well in Mammocult medium (Stem Cell Technologies) supplemented with 4 μg/ml heparin, 0.5 μg/ml hydrocortisone and 1% methylcellulose. Spheres (>100 μm) were counted at 7-10 days later.

SMILES: C=C(c1ccc(C(=O)O)cc1)c1cc2c(cc1C)C(C)(C)CCC2(C)C [Bexarotene]
- mammosphere-forming ability (SUM159 PACR cells [1]): reduced mammosphere-forming ability
- expression of EMT and lineage markers / epithelial features (SUM159): downregulation of mesenchymal signature markers (ZEB1, SERPINE1, FN1, SLUG) and the concomitant gain of epithelial marker CDH1
- difference in drug sensitivity to Raloxifene hydrochloride (NAMEC8 [2]): moderate two-fold
- lipid species content (PI, PG, PC, PE, PS) (NAMEC8 [3]): dramatically increased
- sensitivity to 5-FU of bexarotene-treated PACR cells (SUM159 PACR cells [4]): gained sensitivity to an alternative chemotherapeutic drug, 5-flurouracil (5-FU)
- MET phenotype: induction and durability after drug withdrawal (NAMEC8 [5]; drugs removed for at least seven days): gradually reverted to a more mesenchymal cell phenotype; also recorded: could cause an MET
- expression of EMT and basal/luminal markers (NAMEC8 [5]; transcript and protein): downregulation of mesenchymal signature markers (ZEB1, SERPINE1, FN1, SLUG) and the concomitant gain of epithelial marker CDH1
- cell morphology (NAMEC8 [6]): dramatic change in morphology from scattered, spindle and fibroblastic-like cells to an epithelial-like morphology
- mammosphere formation after drug withdrawal (NAMEC8 [7]): partial reestablishment of mammosphere-forming ability
